The source of these data is paper PMC9738727, “Purification and Characterization of Novel Anti-MRSA Peptides Produced by Brevibacillus sp. SPR-20” (Molecules, 2022).

In brackets after ≈: the same amount, converted by molar mass. Several values for one entry are separate records, joined by “and”; a condition that tells them apart may be missing. Equal entries are not always repeated. Where two headings read alike, the source gives them in different places. Ends that are not written are not given here.

Data set [1] has as its system MRSA isolate 2468. Kind of data set: microbe, parasite or virus in culture. Format: cell-based, Staphylococcus aureus. Here is the method:
(§1) The MIC and MBC of the purified peptides from SPR-20 were determined by broth microdilution assay following a standard guideline. S. aureus TISTR 517 and MRSA isolate 142, 1096, and 2468 as bacterial strains were cultured in MH agar at 37 °C for 18 h. […] The cells were then diluted to 5 × 10^6 CFU/mL using cation-adjusted Mueller Hinton broth (CAMHB). The diluted cell suspension (10 μL) was transferred to each well of a 96-well plate. The purified peptide in the total volume of 100 µL was added to each well to obtain the final concentrations between 0.5 and 64 µg/mL. The standard antibiotics (vancomycin and cefoxitin) (Sigma-Aldrich Co., St. Louis, MO, USA) and antibiotic-free samples were the positive and negative controls, respectively. CAMHB without tested bacteria was used as a blank. The 96-well plates were incubated at 37 °C for 24 h, and the experiment was performed in triplicate for each strain. […] Subsequently, 100 µL of each dilution was spread on MH agar and then incubated at 37 °C for 24 h.

For the next data set, the system named is MRSA isolate 142. In words: microbe, parasite or virus in culture. Format: cell-based, Staphylococcus aureus. Here is the method: as §1
Data set [2] has as its system S. aureus TISTR 517. Kind of data set: microbe, parasite or virus in culture. It counts as cell-based, Staphylococcus aureus. Here is the method:
as §1

A further data set relates to MRSA isolate 1096. In words: microbe, parasite or virus in culture. It counts as cell-based, Staphylococcus aureus. Here is the method: as §1
Data set [3] deals with S. aureus TISTR 517 and MRSA strains. In words: microbe, parasite or virus in culture. It counts as cell-based, Staphylococcus aureus. Particulars: Staphylococcus aureus. Here is the method:
as §1

For data set [4], the system named is MRSA isolate 2468. In words: microbe, parasite or virus in culture. It counts as cell-based, Staphylococcus aureus. Particulars: Staphylococcus aureus, 18 h, read-out: Corrected Zone of Inhibition. Here is the method:
(§2) The antimicrobial activity was measured by an agar well diffusion test with some modified methods. In brief, single colonies of the tested strains were suspended in 0.85% NaCl, and then the OD at 625 nm was adjusted to 0.1. The cell suspensions were spread on MH agar, and the tested samples (100 μL) were introduced into each well before incubation at 37 °C for 24 h. Each experiment was performed in three independent replicates, and the inhibition zone was measured and expressed as mean ± SD.
(§3) The agar well diffusion test was performed in triplicate for potency determination, using S. aureus TISTR 517 and MRSA isolate 2468 as the tested bacteria. […] The remaining standard and sample solutions were transferred to the other 3 wells. The plates were incubated at 37 °C for 18 h.

For data set [5], the system named is S. aureus TISTR 517. Kind of data set: microbe, parasite or virus in culture. It counts as cell-based, Staphylococcus aureus. Particulars: Staphylococcus aureus, TISTR517, 18 h, read-out: Corrected Zone of Inhibition. Here is the method:
as §2, §3

The conditions of data set [6]: cited from earlier work. Here is the method:
With the highest activity, P1 was selected for further study on its stability and mechanism of action. P1 was thermostable as it maintained nearly all activity after exposure to 100 °C or autoclave conditions. The short-chain peptide with substantial β-strand and disordered structures was an important characteristic of P1. This peptide might be refolded to active conformation after heat treatment that conferred good thermal stability. Similarly, acidocin LCHV (11 residues) produced by Lactobacillus acidophilus n.v. Er 317/402 Narine was stable at 130 °C for 90 min [27]. […] The enzymatic stability of P1 was caused by the absence of aromatic amino acids, which are the specific cleavage sites of proteinase K and α-chymotrypsin. The presence of one lysine at the core sequence of P1 might lessen the sensitivity of trypsin [29].

Where [7] appears, read: Staphylococcus aureus, broth microdilution, CAMHB, 37 °C, 24 h, triplicate, read-out: MIC.
Setting [8] is: Staphylococcus aureus, TISTR517, 24 h.

On to `CO[C@@]1(NC(=O)Cc2cccs2)C(=O)N2C(C(=O)O)=C(COC(N)=O)CS[C@@H]21` [Cefoxitin, cefoxitin, reference compound], for which the MIC in the data set with MRSA isolate 2468 [1] (setting [7]) is more than 64 µg/mL; in the data set on MRSA isolate 142 (setting [7]) it was more than 64 µg/mL; with S. aureus TISTR 517 [2] (Staphylococcus aureus, TISTR517, broth microdilution, CAMHB, 37 °C, 24 h, triplicate, read-out: MIC), 2 µg/mL (≈ 4.68 µM); in the data set with S. aureus TISTR 517 [2] (broth microdilution, CAMHB, 37 °C, 24 h, triplicate), 2 µg/mL (≈ 4.68 µM); with MRSA isolate 1096 (setting [7]), more than 64 µg/mL; in data set [3] (MRSA strains only, read-out: MIC), more than 64 µg/mL. Further, the MBC with S. aureus TISTR 517 [2] (Staphylococcus aureus, TISTR517, dilutions spread on MH agar, 37 °C, 24 h, no colony, read-out: MBC) came to 2 µg/mL (≈ 4.68 µM).

As for `CN[C@H](CC(C)C)C(=O)N[C@H]1C(=O)N[C@@H](CC(N)=O)C(=O)N[C@H]2C(=O)N[C@H]3C(=O)N[C@H](C(=O)N[C@H](C(=O)O)c4cc(O)cc(O)c4-c4cc3ccc4O)[C@H](O)c3ccc(c(Cl)c3)Oc3cc2cc(c3O[C@@H]2O[C@H](CO)[C@@H](O)[C@H](O)[C@H]2O[C@H]2C[C@](C)(N)[C@H](O)[C@H](C)O2)Oc2ccc(cc2Cl)[C@H]1O` [Vancomycin, vancomycin], in the data set on MRSA isolate 2468 [1] (Staphylococcus aureus, 24 h), the MBC stood at 2 µg/mL (≈ 1.38 µM) and the MIC came to 2 µg/mL (≈ 1.38 µM). Also, in the data set on MRSA isolate 142 (Staphylococcus aureus, 24 h), the MBC came out at 2 µg/mL (≈ 1.38 µM) and the MIC amounted to 2 µg/mL (≈ 1.38 µM). In the data set with S. aureus TISTR 517 [2] (setting [8]), this compound displayed an MBC of 2 µg/mL (≈ 1.38 µM) and an MIC of 2 µg/mL (≈ 1.38 µM). In addition, in the data set on MRSA isolate 1096 (Staphylococcus aureus, 24 h), the MBC came out at 2 µg/mL (≈ 1.38 µM) and the MIC was 2 µg/mL (≈ 1.38 µM). Besides, in data set [3], the MIC is 2 µg/mL and 1.38 µM. In addition, in the data set with MRSA isolate 2468 [4], the zone of inhibition (commonly the extent of the growth-free halo in a diffusion test) at 50 µg/mL is 20.1 ± 0.29 mm, the zone of inhibition at 75 µg/mL stood at 21.2 ± 0.76 mm, the zone of inhibition at 100 µg/mL came to 22 ± 0.57 mm and the zone of inhibition at 125 µg/mL came out at 22.7 ± 0.61 mm. Besides, the zone of inhibition at 150 µg/mL in the data set with MRSA isolate 2468 [4] came to 23.36 ± 0.21 mm. In the data set on S. aureus TISTR 517 [5], the zone of inhibition at 50 µg/mL came out at 18.8 ± 0.61 mm, the zone of inhibition at 75 µg/mL stood at 19.5 ± 0.52 mm, the zone of inhibition at 100 µg/mL came to 20.3 ± 0.41 mm and the zone of inhibition at 125 µg/mL is 21.1 ± 0.41 mm. Moreover, the zone of inhibition at 150 µg/mL with S. aureus TISTR 517 [5] amounted to 21.3 ± 0.36 mm.

On to “NVGVLNPPPLV [Acidocin LCHV, antimicrobial peptide produced by Lactobacillus acidophilus n.v; Er 317/402 Narine]”, for which, in data set [6] (130 °C for 90 min), the thermal stability result is “stable”. The “effect of trypsin, pepsin, and proteinase K on activity” value in data set [6] (according to a previous study) is “decreased the activity”.

Consider VVLNLLVKVLKYGK [Peptide P3], for which the MBC was 8 µg/mL against MRSA isolate 2468 [1] (isolate 2468, 24 h); 8 µg/mL against MRSA isolate 142 (isolate 142, 24 h); 4 µg/mL in the data set with S. aureus TISTR 517 [2] (TISTR 517, 24 h); 8 µg/mL against MRSA isolate 1096 (isolate 1096, 24 h). The MIC with MRSA isolate 2468 [1] (isolate 2468, 24 h) is on record as 4 µg/mL; in the data set on MRSA isolate 142 (isolate 142, 24 h), 4 µg/mL; in the data set on S. aureus TISTR 517 [2] (TISTR 517, 24 h), 4 µg/mL; in the data set with MRSA isolate 1096 (isolate 1096, 24 h), 4 µg/mL.

Take VVLNLVVKLLKYAK [Peptide P5]: the MBC in the data set on MRSA isolate 2468 [1] (isolate 2468, 24 h) is listed as 32 µg/mL; in the data set with MRSA isolate 142 (isolate 142, 24 h), 32 µg/mL; against S. aureus TISTR 517 [2] (TISTR 517, 24 h), 32 µg/mL; in the data set on MRSA isolate 1096 (isolate 1096, 24 h), 32 µg/mL. Further, the MIC in the data set on MRSA isolate 2468 [1] (isolate 2468, 24 h) came to 32 µg/mL; with MRSA isolate 142 (isolate 142, 24 h), 32 µg/mL; with S. aureus TISTR 517 [2] (TISTR 517, 24 h) it was 32 µg/mL; with MRSA isolate 1096 (isolate 1096, 24 h), 32 µg/mL.

With VVMNLLVKVLKYVV [Peptide P2], the MBC in the data set with MRSA isolate 2468 [1] (isolate 2468, 24 h) worked out at 64 µg/mL; in the data set on MRSA isolate 142 (isolate 142, 24 h) it was 64 µg/mL; against S. aureus TISTR 517 [2] (TISTR 517, 24 h) it was 16 µg/mL; in the data set with MRSA isolate 1096 (isolate 1096, 24 h), 64 µg/mL. Moreover, the MIC is 8 µg/mL against MRSA isolate 2468 [1] (isolate 2468, 24 h); 8 µg/mL against MRSA isolate 142 (isolate 142, 24 h); 8 µg/mL against S. aureus TISTR 517 [2] (TISTR 517, 24 h); 8 µg/mL against MRSA isolate 1096 (isolate 1096, 24 h).

As to VVVNLLVKVLKYAK [Peptide P4], the MBC was determined as 16 µg/mL in the data set with MRSA isolate 2468 [1] (isolate 2468, 24 h); 16 µg/mL with MRSA isolate 142 (isolate 142, 24 h); 8 µg/mL against S. aureus TISTR 517 [2] (TISTR 517, 24 h); 16 µg/mL in the data set on MRSA isolate 1096 (isolate 1096, 24 h). Also, the MIC against MRSA isolate 2468 [1] (isolate 2468, 24 h) came out at 8 µg/mL; in the data set on MRSA isolate 142 (isolate 142, 24 h) it was 8 µg/mL; against S. aureus TISTR 517 [2] (TISTR 517, 24 h), 8 µg/mL; against MRSA isolate 1096 (isolate 1096, 24 h) it was 8 µg/mL.

“XVXVVVKVLKYLX [Brevilaterin V, antimicrobial peptide from Brevibacillus laterosporus S62-9]”: in data set [6] (100 °C for 2 h), the “initial activity retained after heating” value is recorded as 99%. Moreover, the “remaining activity with pepsin, trypsin, and proteinase K” value in data set [6] is “more than 97%”.
